Measured values taken from ChEMBL document CHEMBL1201862, “PubChem BioAssay data set” (2004).
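Growth conditions: 96-well plates. Treatment: test compound, 48 hours, 5 concentrations. Analysis: linear interpolation between bracketing concentrations; unreached endpoints set to highest concentration. The concentration for 50% growth inhibition is given as GI50.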 Calls of active or inactive are those of the source. Cut-off read from the data, not from the text of the source: active = GI50 up to about 1.1 µM and inactive = higher.

Tests used:
Experiment in all cases: NCI anticancer screen, dose series, 48 h
786-0 = system: 786-0
A498 = system: A498
A549 = system: A549
ACHN = system: ACHN
BT-549 = system: BT-549
CAKI-1 = system: CAKI-1
CCRF-CEM = system: CCRF-CEM
COLO 205 = system: COLO 205
DU-145 = system: DU-145
EKVX = system: EKVX
HCC 2998 = system: HCC 2998
HCT-116 = system: HCT-116
HCT-15 = system: HCT-15
HL-60 = system: HL-60
HOP-62 = system: HOP-62
HOP-92 = system: HOP-92
HT-29 = system: HT-29
Hs-578T = system: Hs-578T
IGROV-1 = system: IGROV-1
K562 = system: K562
KM12 = system: KM12
LOX IMVI = system: LOX IMVI
M14 = system: M14
MCF7 = system: MCF7
MDA-MB-231 = system: MDA-MB-231
MDA-MB-435 = system: MDA-MB-435
MDA-N = system: MDA-N
MOLT-4 = system: MOLT-4
Malme-3M = system: Malme-3M
NCI-H226 = system: NCI-H226
NCI-H23 = system: NCI-H23
NCI-H460 = system: NCI-H460
NCI-H522 = system: NCI-H522
NCI/ADR-RES = system: NCI/ADR-RES
OVCAR-3 = system: OVCAR-3
OVCAR-4 = system: OVCAR-4
OVCAR-5 = system: OVCAR-5
OVCAR-8 = system: OVCAR-8
PC-3 = system: PC-3
RPMI-8226 = system: RPMI-8226
SF-268 = system: SF-268
SF-295 = system: SF-295
SF-539 = system: SF-539
SK-MEL-28 = system: SK-MEL-28
SK-MEL-2 = system: SK-MEL-2
SK-MEL-5 = system: SK-MEL-5
SK-OV-3 = system: SK-OV-3
SN12C = system: SN12C
SNB-19 = system: SNB-19
SNB-75 = system: SNB-75
SR = system: SR
SW-620 = system: SW-620
T47D = system: T47D
TK-10 = system: TK-10
U-251 = system: U-251
UACC-257 = system: UACC-257
UACC-62 = system: UACC-62
UO-31 = system: UO-31
RXF 393 = system: RXF 393

With `COc1ccc2[nH]c3c(c2c1)COc1ccccc1C3=O` the GI50 (786-0) was > 100 µM (inactive), the GI50 (A498) was > 100 µM (inactive) and the GI50 (A549) was > 100 µM (inactive). For the same molecule, the GI50 (ACHN) was > 100 µM (inactive), the GI50 (BT-549) was 37.1 µM (inactive) and the GI50 (CAKI-1) was > 100 µM (inactive). For the same molecule, the GI50 (CCRF-CEM) was > 100 µM (inactive), the GI50 (COLO 205) was > 100 µM (inactive) and the GI50 (DU-145) was > 100 µM (inactive). The GI50 (EKVX) was > 100 µM (inactive), the GI50 (HCC 2998) was > 100 µM (inactive) and the GI50 (HCT-116) was > 100 µM (inactive). For the same molecule, the GI50 (HCT-15) was over 100 µM, the GI50 (HL-60) was > 100 µM (inactive) and the GI50 (HOP-62) was > 100 µM (inactive). The GI50 (HOP-92) was > 100 µM (inactive), the GI50 (HT-29) was > 100 µM (inactive) and the GI50 (Hs-578T) was 69 µM (inactive). For the same molecule, the GI50 (IGROV-1) was > 100 µM (inactive), the GI50 (K562) was > 100 µM (inactive) and the GI50 (KM12) was > 100 µM (inactive). The GI50 (LOX IMVI) was > 100 µM (inactive), the GI50 (M14) was > 100 µM (inactive) and the GI50 (MCF7) was > 100 µM (inactive). The GI50 (MDA-MB-231) was > 100 µM (inactive), the GI50 (MDA-MB-435) was 25.4 µM (inactive) and the GI50 (MDA-N) was > 100 µM (inactive). The GI50 (MOLT-4) was > 100 µM (inactive), the GI50 (Malme-3M) was > 100 µM (inactive) and the GI50 (NCI-H226) was > 100 µM (inactive). For the same molecule, the GI50 (NCI-H23) was > 100 µM (inactive), the GI50 (NCI-H460) was > 100 µM (inactive) and the GI50 (NCI-H522) was > 100 µM (inactive). The GI50 (NCI/ADR-RES) was > 100 µM (inactive), the GI50 (OVCAR-3) was > 100 µM (inactive) and the GI50 (OVCAR-4) was > 100 µM (inactive). The GI50 (OVCAR-5) was > 100 µM (inactive), the GI50 (OVCAR-8) was > 100 µM (inactive) and the GI50 (PC-3) was > 100 µM (inactive). For the same molecule, the GI50 (RPMI-8226) was > 100 µM (inactive), the GI50 (SF-268) was > 100 µM (inactive) and the GI50 (SF-295) was > 100 µM (inactive). For the same molecule, the GI50 (SF-539) was 89.1 µM (inactive), the GI50 (SK-MEL-28) was > 100 µM (inactive) and the GI50 (SK-MEL-2) was 34.8 µM (inactive). For the same molecule, the GI50 (SK-MEL-5) was > 100 µM (inactive), the GI50 (SK-OV-3) was > 100 µM (inactive) and the GI50 (SN12C) was > 100 µM (inactive). The GI50 (SNB-19) was > 100 µM (inactive), the GI50 (SNB-75) was 18.6 µM (inactive) and the GI50 (SR) was > 100 µM (inactive). The GI50 (SW-620) was > 100 µM (inactive), the GI50 (T47D) was 44.4 µM (inactive) and the GI50 (TK-10) was > 100 µM (inactive). For the same molecule, the GI50 (U-251) was > 100 µM (inactive), the GI50 (UACC-257) was > 100 µM (inactive) and the GI50 (UACC-62) was > 100 µM (inactive). The GI50 (UO-31) was > 100 µM (inactive).
In the case of `CCN(CC)C(=S)SS(=O)(=O)c1ccccc1C(=O)O`, the GI50 (786-0) is reported as > 100 µM (inactive), the GI50 (A498) is reported as > 38 µM (inactive) and the GI50 (A549) is reported as 10.8 µM (inactive). For the same molecule, the GI50 (ACHN) was > 70.8 µM (inactive), the GI50 (BT-549) was > 100 µM (inactive) and the GI50 (CAKI-1) was > 78 µM (inactive). For the same molecule, the GI50 (CCRF-CEM) was 82 µM (inactive), the GI50 (COLO 205) was > 100 µM (inactive) and the GI50 (DU-145) was > 100 µM (inactive). The GI50 (EKVX) was > 100 µM (inactive), the GI50 (HCC 2998) was > 100 µM (inactive) and the GI50 (HCT-116) was > 96.6 µM (inactive). The GI50 (HCT-15) was over 100 µM, the GI50 (HOP-62) was > 100 µM (inactive) and the GI50 (HOP-92) was > 100 µM (inactive). The GI50 (HT-29) was > 100 µM (inactive), the GI50 (Hs-578T) was > 100 µM (inactive) and the GI50 (IGROV-1) was > 100 µM (inactive). The GI50 (K562) was > 100 µM (inactive), the GI50 (KM12) was > 100 µM (inactive) and the GI50 (LOX IMVI) was > 100 µM (inactive). The GI50 (M14) was > 96.4 µM (inactive), the GI50 (MCF7) was 1.03 µM (active) and the GI50 (MDA-MB-231) was > 100 µM (inactive). The GI50 (MDA-MB-435) was > 100 µM (inactive), the GI50 (MDA-N) was > 100 µM (inactive) and the GI50 (MOLT-4) was 0.933 µM (active). For the same molecule, the GI50 (Malme-3M) was > 96.4 µM (inactive), the GI50 (NCI-H226) was > 46.7 µM (inactive) and the GI50 (NCI-H23) was > 100 µM (inactive). The GI50 (NCI-H460) was > 20 µM (inactive), the GI50 (NCI-H522) was 2.67 µM (inactive) and the GI50 (NCI/ADR-RES) was > 100 µM (inactive). For the same molecule, the GI50 (OVCAR-3) was > 100 µM (inactive), the GI50 (OVCAR-4) was > 100 µM (inactive) and the GI50 (OVCAR-5) was > 100 µM (inactive). The GI50 (OVCAR-8) was > 100 µM (inactive), the GI50 (PC-3) was > 100 µM (inactive) and the GI50 (RPMI-8226) was > 100 µM (inactive). For the same molecule, the GI50 (RXF 393) was > 70.3 µM (inactive), the GI50 (SF-268) was 98.2 µM (inactive) and the GI50 (SF-295) was > 88.5 µM (inactive). The GI50 (SF-539) was > 100 µM (inactive), the GI50 (SK-MEL-28) was > 100 µM (inactive) and the GI50 (SK-MEL-2) was > 100 µM (inactive). The GI50 (SK-MEL-5) was > 60.7 µM (inactive), the GI50 (SK-OV-3) was > 100 µM (inactive) and the GI50 (SN12C) was > 94.8 µM (inactive). For the same molecule, the GI50 (SNB-19) was > 94.2 µM (inactive), the GI50 (SNB-75) was > 89.1 µM (inactive) and the GI50 (SR) was 3.6 µM (inactive). For the same molecule, the GI50 (SW-620) was > 100 µM (inactive), the GI50 (T47D) was > 36 µM (inactive) and the GI50 (TK-10) was > 100 µM (inactive). The GI50 (U-251) was 99.8 µM (inactive), the GI50 (UACC-257) was > 100 µM (inactive) and the GI50 (UACC-62) was 66.4 µM (inactive). For the same molecule, the GI50 (UO-31) was > 94 µM (inactive).
